The target of assay [1] is dephosphorylated FGFR1 (SEQ ID NO: 1, amino acids 458 to 765) (Homo sapiens (Human), UniProt P11362). In words: FGFR enzyme binding assay (HTRF tracer displacement), FGFR1. The conditions noted are these: 5 nM dephosphorylated FGFR1, average of multiple determinations if made. The procedure:
(§1) The potency of compounds inhibiting human isoforms of FGFR kinase was determined using Life Technologies' Homogeneous Time Resolved Fluorescence (HTRF)-based binding assay technology. […] After a 60 minute incubation at 22° C., the extent of tracer displacement was determined using a PerkinElmer EnVision multimode plate reader via HTRF dual wavelength detection, and the percent of control (POC) was calculated using a ratiometric emission factor. One hundred POC was determined using no test compound, and 0 POC was determined in the presence of 1 μM of an appropriate control inhibitor.
In general terms: Time-resolved FRET reads energy transfer from a long-lived donor to a nearby acceptor.

The target of assay [2] is phosphorylated FGFR3 (SEQ ID NO: 5, amino acids 449 to 759) (Homo sapiens (Human), UniProt P22607). In words: FGFR enzyme binding assay (HTRF tracer displacement), FGFR3. The settings on record: 5 nM phosphorylated FGFR3, average of multiple determinations if made. The procedure:
as §1

The target of assay [3] is FGFR3 (SEQ ID NO: 5, amino acids 449-759) (Homo sapiens (Human), UniProt P22607). In words: LC/MS FGFR3 kobs assay (covalent protein modification). It counts as binding. The conditions noted are these: 500 nM FGFR3, 3 μM compound. How it is done:
(§2) The LC/MS FGFR1 and FGFR3 kobs assays were conducted as follows. […] At each time point, the reaction was quenched with 20 μL of 0.4% formic acid. The extent of protein modification by each compound was determined by LC/MS on an Agilent Technologies 6520 Q-TOF LC/MS. Protein signals were then automatically deconvoluted using Agilent Masshunter software. Deconvoluted mass signals were exported to Tibco Spotfire data analysis program for further processing and normalization.
(§3) Data analysis included five steps. First, the signals for the “DMSO Controls” were analyzed to determine the percent of signal associated with unmodified FGFR1 or FGFR3 at each time point. Next, the percent of the signal associated with the covalent modification was determined. Third, the average nonmodified “DMSO Control” signal was used to normalize the modified protein signals at each time point. The percent of unmodified protein was fit to an exponential decay model where A0 is the Percent Unmodified at the start of the reaction, and kobs is the observed rate constant over the time period.
Table EC contains kobs values for compounds tested in these assays, presented as the average of multiple determinations if multiple determinations were made. ND=not determined.

The target in assay [4] is recombinant human FGFR2 cytoplasmic domain (amino acids 403-822) (Homo sapiens (Human), UniProt P21802). Nature of the assay: FGFR2 enzyme activity assay (LanthaScreen TR-FRET). The settings on record: 15 μM ATP, 20 min incubation at 22° C., average of multiple determinations if made, read-out: FGFR2 Enz FRET IC50. It counts as biochemical. How it is done:
FGFR2 kinase activity was measured by the Invitrogen LanthaScreen™ Assay technology which directly measures the amount of substrate phosphorylation by TR-FRET using a fluorescently-labeled peptide and Europium-labeled antibody. Briefly, […] His-tagged recombinant human FGFR2 cytoplasmic domain (amino acids 403-822) (Life Technologies Cat. No. PR5332A) was incubated with 100 nM Alexa Fluor® 647-Poly-GT Peptide Substrate (Life Technologies Cat. No. PV5836) and 15 μM ATP along with test compound in a buffer consisting of 250 mM HEPES, 25 mM MgCl2, 0.05% TritonX-100, pH 7.5, and 2% DMSO. […] After a 20 minute incubation at 22° C., an equal volume of 2 nM LanthaScreen® Eu-PY20 Antibody (Life Technologies Cat. No. PV5691) and 10 mM EDTA were added to quench the kinase reaction and start the detection reaction. After an additional 60 minute incubation at 22° C., the reaction was measured using a PerkinElmer EnVision multimode plate reader via TR-FRET dual wavelength detection, and the percent of control (POC) calculated using a ratiometric emission factor. 100 POC was determined using no test compounds and 0 POC was determined using no enzyme. The POC values were fit to a 4-parameter logistic curve as a function of the concentration of the compound, and the IC50 value is the point where the curve crosses 50 POC.

The target in assay [5] is recombinant human FGFR1 catalytic domain (amino acids 308-731) (Homo sapiens (Human), UniProt P11362). In words: FGFR1 enzyme activity assay (LanthaScreen TR-FRET). Type of assay: biochemical. The settings on record: 20 min incubation at 22° C., average of multiple determinations if made, read-out: FGFR1 Enz FRET IC50. The procedure:
FGFR1 kinase activity was measured by the Invitrogen LanthaScreen™ Assay technology which directly measures the amount of substrate phosphorylation by Time-resolved fluorescence energy transfer (TR-FRET) using a fluorescently-labeled peptide and Europium-labeled antibody. Briefly, […] His-tagged recombinant human FGFR1 catalytic domain (amino acids 308-731) (Life Technologies Cat. No. PR4660A) was incubated with 100 nM Alexa Fluor® 647-Poly-GT Peptide Substrate (Life Technologies Cat. No. PV5836) and […] ATP along with test compound in a buffer consisting of 250 mM HEPES, 25 mM MgCl2, 0.05% TritonX-100, pH 7.5, and 2% DMSO. […] After a 20 minutes incubation at 22° C., an equal volume of 2 nM LanthaScreen® Eu-PY20 Antibody (Life Technologies Cat. No. PV5691) and 10 mM EDTA was added to quench the kinase reaction and start the detection reaction. After an additional 60 minute incubation at 22° C., the reaction was measured using a PerkinElmer EnVision multimode plate reader via TR-FRET dual wavelength detection, and the percent of control (POC) calculated using a ratiometric emission factor. 100 POC was determined using no test compounds and 0 POC was determined using no enzyme. The POC values were fit to a 4-parameter logistic curve as a function of the concentration of the compound, and the IC50 value is the point where the curve crosses 50 POC.

In assay [6] the target is recombinant human FGFR3 (amino acids R397-T806) (Homo sapiens (Human), UniProt P22607). Nature of the assay: FGFR3 enzyme activity assay (LanthaScreen TR-FRET). Type of assay: biochemical. The settings on record: 25 μM ATP, 10 min incubation at 22° C., average of multiple determinations if made, read-out: FGFR3 Enz FRET IC50. How it is done:
FGFR3 kinase activity was measured by the Invitrogen LanthaScreen™ Assay technology which directly measures the amount of substrate phosphorylation by TR-FRET using a fluorescently-labeled peptide and Europium-labeled antibody. Briefly, […] N-terminal GST-HIS6 fusion protein with a 3C cleavage site recombinant human FGFR3 (amino acids R397-T806) (ProQinase Cat. No. 1068-0000-1) was incubated with 100 nM Alexa Fluor® 647-Poly-GT Peptide Substrate (Life Technologies Cat. No. PV5836) and 25 μM ATP along with test compound in a buffer consisting of 250 mM HEPES, 25 mM MgCl2, 0.05% TritonX-100, pH 7.5, and 2% DMSO. […] After a 10 minute incubation at 22° C., an equal volume of 2 nM LanthaScreen® Eu-PY20 Antibody (Life Technologies Cat. No. PV5691) and 10 mM EDTA were added to quench the kinase reaction and start the detection reaction. After an additional 60 minute incubation at 22° C., the reaction was measured using a PerkinElmer EnVision multimode plate reader via TR-FRET dual wavelength detection, and the percent of control (POC) calculated using a ratiometric emission factor. 100 POC was determined using no test compounds and 0 POC was determined using no enzyme. The POC values were fit to a 4-parameter logistic curve as a function of the concentration of the compound, and the IC50 value is the point where the curve crosses 50 POC.

The target in assay [7] is FGFR1 (SEQ ID NO: 1, amino acids 458-765) (Homo sapiens (Human), UniProt P11362). In words: LC/MS FGFR1 kobs assay (covalent protein modification). It counts as binding. The conditions noted are these: 500 nM FGFR1, 3 μM compound. The procedure:
as §2, §3

Each structure is given as a SMILES string.

recombinant human FGFR3 (amino acids R397-T806), sequence (P22607 397-806): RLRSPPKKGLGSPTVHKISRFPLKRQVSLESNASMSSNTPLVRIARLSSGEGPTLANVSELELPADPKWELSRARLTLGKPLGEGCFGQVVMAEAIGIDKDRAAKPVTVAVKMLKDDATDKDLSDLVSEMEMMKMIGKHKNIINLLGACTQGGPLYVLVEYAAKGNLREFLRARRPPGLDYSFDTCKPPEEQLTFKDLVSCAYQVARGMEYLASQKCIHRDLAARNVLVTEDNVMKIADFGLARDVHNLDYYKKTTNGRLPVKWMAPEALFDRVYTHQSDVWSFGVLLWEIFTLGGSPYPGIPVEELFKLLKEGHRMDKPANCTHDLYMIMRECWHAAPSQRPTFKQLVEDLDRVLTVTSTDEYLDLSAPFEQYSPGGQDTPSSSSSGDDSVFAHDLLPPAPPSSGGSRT
FGFR3 (SEQ ID NO: 5, amino acids 449-759), sequence (P22607 449-759): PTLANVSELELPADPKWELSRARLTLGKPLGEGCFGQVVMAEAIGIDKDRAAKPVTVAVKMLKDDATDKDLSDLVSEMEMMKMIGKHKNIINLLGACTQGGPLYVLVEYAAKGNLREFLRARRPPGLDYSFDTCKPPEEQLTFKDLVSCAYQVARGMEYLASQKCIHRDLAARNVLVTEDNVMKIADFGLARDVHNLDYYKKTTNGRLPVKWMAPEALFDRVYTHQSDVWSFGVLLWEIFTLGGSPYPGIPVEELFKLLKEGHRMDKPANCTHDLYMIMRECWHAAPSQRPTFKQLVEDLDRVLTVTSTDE
phosphorylated FGFR3 (SEQ ID NO: 5, amino acids 449 to 759), sequence (P22607 449-759): as above
recombinant human FGFR2 cytoplasmic domain (amino acids 403-822), sequence (P21802 402-821): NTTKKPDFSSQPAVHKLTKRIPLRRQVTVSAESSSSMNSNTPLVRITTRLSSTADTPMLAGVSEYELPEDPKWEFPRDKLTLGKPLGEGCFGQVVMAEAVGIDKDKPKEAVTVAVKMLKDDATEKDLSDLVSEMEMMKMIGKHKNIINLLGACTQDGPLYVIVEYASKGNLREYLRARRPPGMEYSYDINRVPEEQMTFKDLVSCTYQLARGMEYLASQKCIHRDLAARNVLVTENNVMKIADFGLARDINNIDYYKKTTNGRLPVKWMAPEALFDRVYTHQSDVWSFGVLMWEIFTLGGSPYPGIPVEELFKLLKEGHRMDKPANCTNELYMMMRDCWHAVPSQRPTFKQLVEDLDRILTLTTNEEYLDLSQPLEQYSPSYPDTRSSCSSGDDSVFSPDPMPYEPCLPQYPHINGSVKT
FGFR1 (SEQ ID NO: 1, amino acids 458-765), sequence (P11362 458-765): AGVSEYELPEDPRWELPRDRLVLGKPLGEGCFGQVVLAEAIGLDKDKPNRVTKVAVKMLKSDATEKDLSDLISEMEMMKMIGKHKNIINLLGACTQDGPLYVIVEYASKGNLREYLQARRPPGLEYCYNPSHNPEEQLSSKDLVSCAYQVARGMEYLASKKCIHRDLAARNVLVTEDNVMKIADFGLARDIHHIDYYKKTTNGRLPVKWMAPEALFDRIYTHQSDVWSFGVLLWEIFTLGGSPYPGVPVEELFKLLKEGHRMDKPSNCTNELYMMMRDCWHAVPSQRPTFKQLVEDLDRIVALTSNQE
dephosphorylated FGFR1 (SEQ ID NO: 1, amino acids 458 to 765), sequence (P11362 458-765): as above
recombinant human FGFR1 catalytic domain (amino acids 308-731), sequence (P11362 other isoform, or with tags, fused parts or gaps): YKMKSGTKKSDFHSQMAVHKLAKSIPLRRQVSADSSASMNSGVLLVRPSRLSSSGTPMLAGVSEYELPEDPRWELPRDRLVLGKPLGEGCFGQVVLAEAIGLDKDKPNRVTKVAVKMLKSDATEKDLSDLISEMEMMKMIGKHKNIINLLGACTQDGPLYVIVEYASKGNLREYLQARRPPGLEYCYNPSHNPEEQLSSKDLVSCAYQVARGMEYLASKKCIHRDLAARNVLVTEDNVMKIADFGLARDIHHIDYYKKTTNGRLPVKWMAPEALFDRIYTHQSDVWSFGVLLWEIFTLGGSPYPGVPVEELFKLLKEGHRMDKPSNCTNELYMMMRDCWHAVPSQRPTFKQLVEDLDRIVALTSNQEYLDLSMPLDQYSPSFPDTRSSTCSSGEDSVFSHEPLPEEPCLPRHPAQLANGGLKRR

With `C=CC(=O)N1CC2CC(C1)N2C(=O)N1CCC(n2cc(-c3cc(OC)c4c(C#N)cnn4c3)cn2)CC1` [Example 4, 6-(1-(1-(3-acryloyl-3,6-diazabicyclo[3.1.1]heptane-6-carbonyl)piperidin-4-yl)-1H-pyrazol-4-yl)-4-methoxypyrazolo[1,5-a]pyridine-3-carbonitrile], the IC50 – broadly, the concentration that inhibits the measured activity by half – is 42 nM in assay [1]; 6 nM in assay [2]; 4 nM in assay [4]; 11 nM in assay [5]; 3 nM in assay [6]. Moreover, the “FGFR3 Enz kobs” value in assay [3] was determined as 0.00283 min⁻¹. Further, the “FGFR1 Enz kobs” value in assay [7] turned out to be 0.00052 min⁻¹.
Consider `C=CC(=O)N1C[C@H]2C[C@@H]1CN2C(=O)N1CCC(n2cc(-c3cc(OC)c4c(C#N)cnn4c3)cn2)CC1` [Example 5, 6-(1-(1-((1R,4R)-5-acryloyl-2,5-diazabicyclo[2.2.1]heptane-2-carbonyl)piperidin-4-yl)-1H-pyrazol-4-yl)-4-methoxypyrazolo[1,5-a]pyridine-3-carbonitrile], for which the half-inhibitory concentration (IC50) was 47 nM in assay [1]; 5 nM in assay [2]; 11 nM in assay [4]; 25 nM in assay [5]; 7 nM in assay [6]. In addition, the “FGFR3 Enz kobs” value in assay [3] is 0.00287 min⁻¹. For the same compound, in assay [7], the “FGFR1 Enz kobs” value came to 0.00047 min⁻¹.
`C=CC(=O)N1CCC[C@H](C(=O)N2CCC(n3cc(-c4cc(OC)c5c(C#N)cnn5c4)cn3)CC2)C1` [Example 16, (S)-6-(1-(1-(1-acryloylpiperidine-3-carbonyl)piperidin-4-yl)-1H-pyrazol-4-yl)-4-methoxypyrazolo[1,5-a]pyridine-3-carbonitrile]: the IC50 in assay [1] stood at 31 nM; in assay [2] it was 6 nM; in assay [4], 4 nM; in assay [5] it was 20 nM; in assay [6], 2 nM. Further, the “FGFR3 Enz kobs” value in assay [3] amounted to 0.00124 min⁻¹. For the same compound, the “FGFR1 Enz kobs” value in assay [7] came to 0.00054 min⁻¹.
As to `C=CC(=O)N1CCC[C@@H](C(=O)N2CCC(n3cc(-c4cc(OC)c5c(C#N)cnn5c4)cn3)CC2)C1` [Example 17, (R)-6-(1-(1-(1-acryloylpiperidine-3-carbonyl)piperidin-4-yl)-1H-pyrazol-4-yl)-4-methoxypyrazolo[1,5-a]pyridine-3-carbonitrile], the IC50 amounted to 45 nM in assay [1]; 8 nM in assay [2]; 7 nM in assay [4]; 17 nM in assay [5]; 6 nM in assay [6]. Further, the “FGFR3 Enz kobs” value in assay [3] was determined as 0.00163 min⁻¹. In addition, the “FGFR1 Enz kobs” value in assay [7] is 0.00041 min⁻¹.
For the compound `C=CC(=O)N1CCN(c2cccc(-n3cc(-c4cc(OC)c5c(C#N)cnn5c4)cn3)c2)CC1` [Example 27, 6-(1-(3-(4-acryloylpiperazin-1-yl)phenyl)-1H-pyrazol-4-yl)-4-methoxypyrazolo[1,5-a]pyridine-3-carbonitrile], the IC50 in assay [1] is 191 nM; in assay [2], 44 nM; in assay [4], 13 nM; in assay [5] it was 63 nM; in assay [6], 21 nM. Also, the “FGFR3 Enz kobs” value in assay [3] was 0.00184 min⁻¹. In assay [7], the “FGFR1 Enz kobs” value was found to be 0.00017 min⁻¹.
Turning to `C=CC(=O)N1CC2(CC(C(=O)N3CCC(n4cc(-c5cc(OC)c6c(C#N)cnn6c5)cn4)CC3)C2)C1` [Example 47, 6-(1-(1-(2-acryloyl-2-azaspiro[3.3]heptane-6-carbonyl)piperidin-4-yl)-1H-pyrazol-4-yl)-4-methoxypyrazolo[1,5-a]pyridine-3-carbonitrile], the half-maximal inhibitory concentration (IC50) in assay [1] came to 177 nM; in assay [2] it was 22 nM; in assay [4], 5 nM; in assay [5], 35 nM; in assay [6] it was 4 nM. In addition, in assay [3], the “FGFR3 Enz kobs” value turned out to be 0.00501 min⁻¹. Further, in assay [7], the “FGFR1 Enz kobs” value is 0.00093 min⁻¹.
As for `C=CC(=O)N1CCC2(CC1)CC(C(=O)N1CCC(n3cc(-c4cc(OC)c5c(C#N)cnn5c4)cn3)CC1)C2` [Example 48, 6-(1-(1-(7-acryloyl-7-azaspiro[3.5]nonane-2-carbonyl)piperidin-4-yl)-1H-pyrazol-4-yl)-4-methoxypyrazolo[1,5-a]pyridine-3-carbonitrile], the IC50 was found to be 109 nM in assay [1]; 25 nM in assay [2]; 3 nM in assay [4]; 11 nM in assay [5]; 7 nM in assay [6]. For the same compound, the “FGFR3 Enz kobs” value in assay [3] stood at 0.00114 min⁻¹. The “FGFR1 Enz kobs” value in assay [7] was 0.00071 min⁻¹.
As for `C=CC(=O)N1CC[C@H](C(=O)N2CC[C@@H](n3cc(-c4cc(OC)c5c(C#N)cnn5c4)cn3)C2)C1` [Example 57, 6-(1-((R)-1-((S)-1-acryloylpyrrolidine-3-carbonyl)pyrrolidin-3-yl)-1H-pyrazol-4-yl)-4-methoxypyrazolo[1,5-a]pyridine-3-carbonitrile], the IC50 in assay [1] is 214 nM; in assay [2] it was 25 nM; in assay [4], 7 nM; in assay [5] it was 34 nM; in assay [6] it was 6 nM. In addition, in assay [3], the “FGFR3 Enz kobs” value was 0.0015 min⁻¹. In addition, the “FGFR1 Enz kobs” value in assay [7] worked out at 0.00051 min⁻¹.

The record behind these values is patent US12180207B2 (ARRAY BIOPHARMA INC., priority 2018, dated 2024).
